Type in all cases: in vivo
One test has as its system Phakopsora pachyrhizi. The experiment in a line: Use Example 2: curative control of soybean rust on soybeans (PHAKPA K2). As to conditions: 16 ppm, F129L strain, up to 14 days, untreated 90. On the procedure:
(§1) The compound was dissolved in a mixture of acetone and/or dimethylsulfoxide and the wetting agent/emulsifier Wettol, which is based on ethoxylated alkylphenoles, in a ratio (volume) solvent-emulsifier of 99 to 1 to give a total volume of 5 ml. Subsequently, water was added to total volume of 100 ml. This stock solution was then diluted with the described solvent-emulsifier-water mixture to the final concentration given in the tables below.
Use Example 2. Curative Control of Soybean Rust on Soybeans Caused by Phakopsora pachyrhizi (PHAKPA K2)
Leaves of potted soybean seedlings were inoculated with spores of Phakopsora pachyrhizi. The strain used contains the amino acid substitution F129L in the mitochondrial cytochrome b protein conferring resistance to Qo inhibitors. To ensure the success of the artificial inoculation, the plants were transferred to a humid chamber with a relative humidity of about 95% and 20 to 24° C. for 24 h. The next day the plants were cultivated for 1 day in a greenhouse chamber at 23-27° C. and a relative humidity between 60 and 80%. Then the plants were sprayed to run-off with the previously described spray solution, containing the concentration of active ingredient or their mixture as described below. The plants were allowed to air-dry. Then the trial plants were cultivated up to 14 days in a greenhouse chamber at 23-27° C. and a relative humidity between 60 and 80%. The extent of fungal attack on the leaves was visually assessed as % diseased leaf area.

A further test concerns Puccinia sorghi. The experiment in a line: Use Example 8: protective control of corn rust on corn (PUCCSO P1). As to conditions: 16 ppm, untreated 80%. On the procedure:
as §1
Use Example 8. Protective Control of Corn Rust on Corn Caused by Puccinia sorghi (PUCCSO P1)
The primary leaves of potted corn seedling were sprayed to run-off with previously described spray solution, containing the concentration of active ingredient or their mixture as described below. One day later the plants were dusted with before harvested spores of Puccinia sorghi. To ensure the success of the artificial inoculation, the plants were transferred to a humid chamber without light and a relative humidity of […] and 20 to 24° C. and were there incubated for about fourteen days. The extent of fungal attack on the primary leaves was visually assessed as % diseased leaf area.

In a further test the test system is Sclerotinia sclerotiorum. As to the kind of experiment: Use Example 13: preventative fungicidal control of white mold on soy beans (SCLESC P1 mycelium). As to conditions: 63 ppm, untreated 85%. On the procedure: as §1
Use Example 13. Preventative Fungicidal Control of White Mold on Soy Beans Caused by Sclerotinia sclerotiorum (SCLESC P1 Mycelium)
Young seedlings of soy beans were grown in pots. These plants were sprayed to run-off with previously described spray solution, containing the concentration of active ingredient or mixture mentioned in the table below. The next day the treated plants were inoculated with a biomalt suspension, containing the mycelium of Sclerotinia sclerotiorum. Then the trial plants were cultivated for 6 days in a greenhouse chamber at 23° C. and a relative humidity between 80 and 85%. The extent of fungal attack on the leaves was visually assessed as % diseased leaf area.

On to `CO/C=C(/C(=O)OC)c1cccc(C)c1CO/N=C(\COC)c1c(F)cc(F)cc1F` [Compound 4, methyl (E)-3-methoxy-2-[2-[[(Z)-[2-methoxy-1-(2,4,6-trifluorophenyl)ethylidene]amino]oxymethyl]-3-methyl-phenyl]prop-2-enoate], for which the “Diseased leaf area (%)” value in the test on Phakopsora pachyrhizi was determined as 5%. The same measure, in the same setting: the same measure for `COC/C(=N\OCc1c(C)cccc1/C(=N\OC)C(=O)OC)c1c(F)cc(F)cc1F` [Compound 2, methyl (2E)-2-methoxyimino-2-[2-[[(Z)-[2-methoxy-1-(2,4,6-trifluorophenyl)ethylidene]amino]oxymethyl]-3-methyl-phenyl]acetate]: 2%. As for `CNC(=O)/C(=N/OC)c1cccc(C)c1CO/N=C(\COC)c1ccc(F)c(F)c1` [Compound 5, (2E)-2-[2-[[(Z)-[1-(3,4-difluorophenyl)-2-methoxy-ethylidene]amino]oxymethyl]-3-methylphenyl]-2-methoxyimino-N-methyl-acetamide], the “Diseased leaf area (%)” value was determined as 6% in the test on Phakopsora pachyrhizi and 0% with Puccinia sorghi. With `CNC(=O)/C(=N/OC)c1cccc(C)c1CO/N=C(\COC)c1c(F)cc(F)cc1F` [Compound 1, (2E)-2-methoxyimino-2-[2-[[(Z)-[2-methoxy-1-(2,4,6-trifluorophenyl)ethylidene]amino]oxymethyl]-3-methyl-phenyl]-N-methyl-acetamide], in the test with Phakopsora pachyrhizi, the “Diseased leaf area (%)” value was found to be 0%. Consider `CNC(=O)/C(=N/OC)c1cccc(C)c1CO/N=C(\COC)c1c(F)cc(OC)cc1F` [Compound 7, (2E)-2-[2-[[(Z)-[1-(2,6-difluoro-4-methoxy-phenyl)-2-methoxy-ethylidene]amino]oxymethyl]-3-methyl-phenyl]-2-methoxyimino-N-methyl-acetamide], for which the “Diseased leaf area (%)” value with Phakopsora pachyrhizi is 4%; in the test on Sclerotinia sclerotiorum, 4%; in the test on Puccinia sorghi, 12%.

The values above are taken from patent US20260317272A1, “USE OF STROBILURIN TYPE COMPOUNDS FOR COMBATING PHYTOPATHOGENIC FUNGI CONTAINING AN AMINO ACID SUBSTITION F129L IN THE MITOCHONDRIAL CYTOCHROME B PROTEIN CONFERRING RESISTANCE TO QO INHIBITORS XVI” (priority 2023, published 2026).
